In ChEMBL document CHEMBL5375996, “Discovery of Orally Available and Brain Penetrant AEP Inhibitors” (J Med Chem, 2023):

Tests used:
in vitro = settings: PAMPA
physchem = settings: octanol/water

Row | Compound | Papp (in vitro) [×10⁻⁶ cm/s] | logD (physchem)
1 | N#C[C@H](CC(N)=O)NC(=O)[C@@H]1CCCN1C(=O)C1(c2ccc(F)cc2)CC1 | 2.9 | 0.5
2 | NC(=O)CN(NC(=O)[C@@H]1CCCN1C(=O)C1(c2ccc(OC(F)(F)F)cc2)CC1)C(=O)CCl |  | 1.9
3 | C#C[C@H](CC(N)=O)NC(=O)[C@@H]1CCCN1C(=O)[C@]1(c2ccc(OC(F)(F)F)cc2)C[C@H](F)C1 |  | 1.7
4 | N#C[C@H](CC(N)=O)NC(=O)[C@@H]1CCCN1C(=O)Cc1ccccc1 | 2.7 | 
5 | C#C[C@H](CC(N)=O)NC(=O)[C@@H]1C[C@H](C)CN1C(=O)C1(c2ccc(OC(F)(F)F)cc2)CC1 | 1.5 | 2.3
6 | C#C[C@H](CC(N)=O)NC(=O)[C@@H]1CCCN1C(=O)[C@]1(c2ccc(OC(F)(F)F)cc2)C[C@@H](F)C1 |  | 2.1
7 | C#C[C@H](CC(N)=O)NC(=O)[C@@H]1C[C@@H](C)CN1C(=O)C1(c2ccc(OC(F)(F)F)cc2)CC1 | 2.8 | 2.2
